In patent publication US5900488A, “Method for treating mycosis using imidazolylacetonitrile derivatives” (Nihon Nohyaku Co., Ltd., priority 1995, dated 1999):
In brackets after ≈: the same amount, converted by molar mass. Where two headings read alike, the source gives them in different places. Each block holds one compound with its values, some of them ahead of it.

Assays:
[1] = system: Trichophyton mentagrophytes; assay: In vitro activity against Trichophyton mentagrophytes, MIC by twofold macro-broth dilution (Test Example 1); format: cell-based; conditions: Trichophyton mentagrophytes, 7 days at 27° C.
Procedure: (§1) Minimum inhibitory concentrations (MICs) were determined by the twofold macro-broth dilution method with Sabouraud's glucose broth which constituted with 1% bactopeptone and 4% glucose. To each tube containing 9.8 ml of the broth, 0.1 ml of each testing compound dissolved in DMSO and 0.1 ml of a conidial suspension (1×10^6 conidia/ml) were added. The fungal growth was observed after incubation for 7 days at 27° C. The MIC was determined as the lowest drug concentration which prevented a visible fungal growth.

[2] = system: trichophyton mentagrophytes TIMM 2789; assay: Therapeutic efficacy on experimental tinea pedis in guinea pigs (Test Example 2); format: in vivo
Procedure: Male Hartley guinea pigs (Japan SLC Inc.) weighing 400 to 620 g were used for the infection study. One side of a paper disc (1.5 mm thick×8 mm diameter) was covered with a piece of aluminum foil while the other side was free to carry the inoculum suspension. The disc was immersed with 50 μl of the inoculum suspension (trichophyton mentagrophytes TIMM 2789, 1×10^8 conidia/ml), and was then fixed on the planta pedis of animal feet with an adhesive elastic tape. The disc was removed on the seventh day postinfection. Each agent dissolved in PEG 400 (0.1 ml/locus) was topically applied to the whole soles of guinea pigs once a day for 3 consecutive days, starting on the 10th day postinfection. Five days after the last treatment, the skin tissue from each planta pedis and the corresponding tarsus of all animals was cut into small blocks (about 2×2 mm). Ten skin blocks obtained from each part of the foot were implanted on a Sabouraud's glucose agar plate containing antibiotics, and were cultured at 27° C. for 14 days. The skin blocks yielding fungal growth were regarded as culture-positive, and the foot (planta pedis plus tarsus) with more than one culture-positive skin block was considered fungus-positive. In addition, the intensity of infection was assessed by the scores based on the number of culture-positive skin blocks. Namely, +10, +9, +8, +7, +6, +5, +4, +3, +2, +1 or 0 was given as the score according to the corresponding number of culture-positive skin blocks out of ten skin blocks studied. Statistical analyses for the rate of fungus-positive feet and the average intensity of infection were assessed by Fisher's exact probably test and Mann-Whitney's U-test, respectively.

Aspergillus fumigatus = assay: In vitro antifungal activity against Aspergillus fumigatus, MIC by twofold agar dilution (Test Example 4); format: cell-based
Procedure: MICs were determined by the twofold agar dilution method with casitone agar which constituted with 0.9% bactocasitone, 1% bacto-yeast extract, 2% glucose, 0.1% KH2 PO4, 0.1% Na2 HPO4, 1% Na3 C6 H5 O7 and 1.6% agar. A loopful of each inoculum (1×10^6 conidia/ml) was streaked onto the agar plate containing a compound, and a fungal growth was observed after incubation for 48 hours at 35° C. The MIC was determined as the lowest drug concentration which prevented a visible fungal growth.

Candida albicans = assay: In vitro antifungal activity against Candida albicans, MIC by twofold micro-broth dilution (Test Example 3); format: cell-based; conditions: 48 hours at 35° C., pH 7.0, read-out: MIC
Procedure: MICs were determined by the twofold micro-broth dilution method with RPMI 1640 buffered with morphorino-propanesulfonic acid to a final molarity of 0.165M (pH 7.0). One hundred μl of a yeast cell suspension (1 to 5×10^3 cells/ml) and 100 μl of the compound-containing medium were pipetted into each well flat-bottomed microtiter plates. After incubation for 48 hours at 35° C., the turbidity of each well was measured at 630 nm.

Trichophyton rubrum = assay: In vitro activity against Trichophyton rubrum, MIC by twofold macro-broth dilution (Test Example 1); format: cell-based
Procedure: as §1

[3] = 1% in PEG 400, topical once a day for 3 days, p < 0.01 vs untreated and PEG 400, Compound (A) also p < 0.05 vs 1% Racemic Compound (A)
[4] = 1% in PEG 400, topical once a day for 3 days, p < 0.01 vs untreated and PEG 400 control

MIC ([1]; IFO5466, 168 h, strain IFO 5466): 0.04 µg/mL (≈ 0.125 µM)
MIC ([1]; IFO5809, 168 h, strain IFO 5809): 0.01 µg/mL (≈ 0.0313 µM)
MIC ([1]; IFO5810, 168 h, strain IFO 5810): 0.01 µg/mL (≈ 0.0313 µM)
MIC ([1]; IFO5811, 168 h, strain IFO 5811): 0.04 µg/mL (≈ 0.125 µM)
MIC ([1]; IFO5929, 168 h, strain IFO 5929): 0.02 µg/mL (≈ 0.0625 µM)
MIC ([1]; TIMM1189, 168 h, strain TIMM 1189): 0.04 µg/mL (≈ 0.125 µM)
MIC ([1]; TIMM1814, 168 h, strain TIMM 1814): 0.04 µg/mL (≈ 0.125 µM)
MIC ([1]; TIMM1815, 168 h, strain TIMM 1815): 0.04 µg/mL (≈ 0.125 µM)
MIC ([1]; TIMM1817, 168 h, strain TIMM 1817): 0.04 µg/mL (≈ 0.125 µM)
MIC ([1]; TIMM2789, 168 h, strain TIMM 2789): 0.01 µg/mL (≈ 0.0313 µM)
MIC (Aspergillus fumigatus; TIMM0063, strain TIMM 0063, 48 hours at 35° C., read-out: MIC): 0.0013 µg/mL (≈ 0.00406 µM)
MIC (Aspergillus fumigatus; TIMM0078, strain TIMM 0078, 48 hours at 35° C., read-out: MIC): 0.0013 µg/mL (≈ 0.00406 µM)
MIC (Aspergillus fumigatus; TIMM1728, strain TIMM 1728, 48 hours at 35° C., read-out: MIC): 0.0013 µg/mL (≈ 0.00406 µM)
MIC (Aspergillus fumigatus; TIMM1767, strain TIMM 1767, 48 hours at 35° C., read-out: MIC): 0.0025 µg/mL (≈ 0.00782 µM)
MIC (Candida albicans; IFO0197, strain IFO 0197, 80% inhibition): 0.25 µg/mL (≈ 0.782 µM)
MIC (Candida albicans; IFO0579, strain IFO 0579, 80% inhibition): 0.0625 µg/mL (≈ 0.195 µM)
MIC (Candida albicans; IFO1269, strain IFO 1269, 80% inhibition): 0.125 µg/mL (≈ 0.391 µM)
MIC (Candida albicans; IFO1270, strain IFO 1270, 80% inhibition): 1 µg/mL (≈ 3.13 µM)
MIC (Candida albicans; IFO1385, strain IFO 1385, 80% inhibition): 0.25 µg/mL (≈ 0.782 µM)
MIC (Candida albicans; IFO1386, strain IFO 1386, 80% inhibition): 0.25 µg/mL (≈ 0.782 µM)
MIC (Candida albicans; TIMM3163, strain TIMM 3163, 80% inhibition): 16 µg/mL (≈ 50 µM)
MIC (Candida albicans; TIMM3164, strain TIMM 3164, 80% inhibition): 0.5 µg/mL (≈ 1.56 µM)
MIC (Candida albicans; TIMM3165, strain TIMM 3165, 80% inhibition): 4 µg/mL (≈ 12.5 µM)
MIC (Candida albicans; TIMM3166, strain TIMM 3166, 80% inhibition): 2 µg/mL (≈ 6.25 µM)
MIC (Trichophyton rubrum; IFO5467, 168 h, strain IFO 5467, 7 days at 27° C.): 0.005 µg/mL (≈ 0.0156 µM)
MIC (Trichophyton rubrum; IFO5807, 168 h, strain IFO 5807, 7 days at 27° C.): 0.01 µg/mL (≈ 0.0313 µM)
MIC (Trichophyton rubrum; IFO5808, 168 h, strain IFO 5808, 7 days at 27° C.): 0.01 µg/mL (≈ 0.0313 µM)
MIC (Trichophyton rubrum; IFO6203, 168 h, strain IFO 6203, 7 days at 27° C.): 0.005 µg/mL (≈ 0.0156 µM)
MIC (Trichophyton rubrum; IFO6204, 168 h, strain IFO 6204, 7 days at 27° C.): 0.01 µg/mL (≈ 0.0313 µM)
MIC (Trichophyton rubrum; IFO9185, 168 h, strain IFO 9185, 7 days at 27° C.): 0.0025 µg/mL (≈ 0.00782 µM)
MIC (Trichophyton rubrum; TIMM1822, 168 h, strain TIMM 1822, 7 days at 27° C.): 0.005 µg/mL (≈ 0.0156 µM)
MIC (Trichophyton rubrum; TIMM1823, 168 h, strain TIMM 1823, 7 days at 27° C.): 0.01 µg/mL (≈ 0.0313 µM)
MIC (Trichophyton rubrum; TIMM1824, 168 h, strain TIMM 1824, 7 days at 27° C.): 0.005 µg/mL (≈ 0.0156 µM)
MIC (Trichophyton rubrum; TIMM1830, 168 h, strain TIMM 1830, 7 days at 27° C.): 0.0013 µg/mL (≈ 0.00406 µM)
SMILES: N#C/C(=C1/SCC(c2ccccc2Cl)S1)n1ccnc1 (racemic) [Racemic Compound (A), (±)-(E)-[4-(2-chlorophenyl)-1,3-dithiolan-2-ylidene]-1-imidazolylacetonitrile]
Fungus-positive rate (%) [2, 3]: 40%
Fungus-positive rate: The number of positive feet/The total number of feet [2, 3]: 4/10 and four feet among the inoculated ten feet
Average intensity of infection, planta pedis (score 0 to +10) [2, 4]: +0.6
Average intensity of infection, tarsus (score 0 to +10) [2, 4]: +0.2
curative effect (in words) ([2]; 1% treated group): significant curative effect

SMILES: CCC(C)n1ncn(-c2ccc(N3CCN(c4ccc(OC[C@H]5CO[C@](Cn6cncn6)(c6ccc(Cl)cc6Cl)O5)cc4)CC3)cc2)c1=O (relative stereo) [ITZ, (±)1-sec-Butyl-4-[p[4[p[[2R*,4S*2-(2,4-dichlorophenyl)-2-(1H-1,2,4-trizol-1-ylmethyl)-1,3-dioxolan-4-yl]methoxy]phenyl1-piperazinyl]phenyl.DELTA^21,2,4-triazolin-5-one]
MIC (Aspergillus fumigatus; TIMM0063, 48 h): 0.04 µg/mL (≈ 0.0567 µM)
MIC (Aspergillus fumigatus; TIMM0078, 48 h): 0.04 µg/mL (≈ 0.0567 µM)
MIC (Aspergillus fumigatus; TIMM1728, 48 h): 0.08 µg/mL (≈ 0.113 µM)
MIC (Aspergillus fumigatus; TIMM1767, 48 h): 0.08 µg/mL (≈ 0.113 µM)
